Data published in patent publication US7317028B2, “Cell differentiation inducer” (Schering Aktiengesellschaft, priority 1996, dated 2008).

What was measured:
A2780 cells = assay: Test for induction of differentiation in A2780 cells (ALP activity, ALPmin); format: cell-based, human; details: Homo sapiens, 72 h; A2780 cells, 3 days incubation; minimum concentration of the drug inducing increase of ALP activity
Description: Increase of alkaline phosphatase (ALP) activity is known as an indicator for differentiation of human colon cancer cells. […] Thus, differentiation inducing action was evaluated using ALP activity as an indicator.
To each well of a 96-well plate was placed 0.1 mL of A2780 cells (15,000 cells/well) and the next day was added 0.1 mL of a sequential dilute of test solution with the medium. […] The reaction was quenched with 0.05 mL/well of 3N sodium hydroxide aq. For each well, an absorbance at 405 nm was measured to determine the minimum concentration of the drug inducing increase of ALP activity (ALPmin).

SMILES	melting point	minimal effective concentration (A2780 cells)
Nc1ccccc1NC(=O)c1ccc(NC(=O)CC(=O)Nc2cccnc2)cc1 [Example 122, N-(2-aminophenyl)-4-[3-[N-(pyridin-3-yl)amino]-1,3-dioxopropylamino]benzamide]	196 °C (dec.)	0.03 µM
Cc1cccc(C(=O)NCc2ccc(C(=O)Nc3ccccc3N)cc2)n1 [Example 13, N-(2-aminophenyl)-4-[N-(6-methylpicolinoyl)aminomethyl]benzamide]	172 to 173 °C	1 µM
Nc1ccccc1NC(=O)c1ccc(CNC(=O)OCc2ccccn2)cc1 [Example 51, N-(2-aminophenyl)-4-[N-(pyridin-2-yl)methoxycarbonylaminomethyl]benzamide]	166 to 167 °C	1 µM
Cc1ncccc1COC(=O)NCc1ccc(C(=O)Nc2ccccc2N)cc1 [Example 56, N-(2-aminophenyl)-4-[N-(2-methylpyridin-3-yl)methoxycarbonylaminomethyl]benzamide]	164 to 165 °C	3 µM
Nc1ccccc1NC(=O)c1ccc(CNC(=O)OCCc2ccccn2)cc1 [Example 52, N-(2-aminophenyl)-4-[N-[2-(pyridin-2-yl)ethoxycarbonyl]aminomethyl]benzamide]	146 to 148 °C	1 µM
Nc1ccccc1NC(=O)c1ccc(CNC(=O)c2cc3ccncc3o2)cc1 [Example 39, N-(2-aminophenyl)-4-[N-(furo[2,3-c]pyridin-2-yl)carbonylaminomethyl]benzamide]	210 °C (dec.)	0.1 µM
Nc1ccccc1NC(=O)c1ccc(NC(=O)COc2cccnc2)cc1 [Example 120, N-(2-aminophenyl)-4-[N-(pyridin-3-yl)oxyacetylamino]benzamide]	175 to 179 °C	0.3 µM
Nc1ccccc1NC(=O)c1ccc(CNC(=O)OCCc2cccnc2)cc1 [Example 54, N-(2-aminophenyl)-4-[N-[2-(pyridin-3-yl)ethoxycarbonyl]aminomethyl]benzamide]	120 to 125 °C	1 µM
Cl.Nc1ccccc1NC(=O)c1ccc(CNC(=O)c2ccccc2)cc1 [Example 1, N-(2-aminophenyl)-4-(N-benzoylaminomethyl)benzamide hydrochloride]	206 to 209 °C	1 µM
CN(C)c1ccc(C(=O)NCc2ccc(C(=O)Nc3ccccc3N)cc2)cc1 [Example 8, N-(2-aminophenyl)-4-[N-[4-(N,N-dimethyl)aminobenzoyl]aminomethyl]benzamide]	216 to 219 °C (dec.)	1 µM
Nc1ccccc1NC(=O)c1ccc(NC(=O)CCC(=O)c2cccnc2)cc1 [Example 121, N-(2-aminophenyl)-4-[4-(pyridin-3-yl)-1,4-dioxobutylamino]benzamide]	190 to 194 °C	3 µM
Nc1ccccc1NC(=O)c1ccc(CNC(=O)COc2cncc(Cl)c2)cc1 [Example 32, N-(2-aminophenyl)-4-[N-(5-chloropyridin-3-yl)oxyacetylaminomethyl]benzamide]	199 to 201 °C	3 µM
Cn1cncc1COC(=O)NCc1ccc(C(=O)Nc2ccccc2N)cc1 [Example 74, N-(2-aminophenyl)-4-[N-(1-methylimidazol-5-yl)methoxycarbonylaminomethyl]benzamide]	162 to 165 °C (dec.)	10 µM
Nc1ccccc1NC(=O)c1ccc(COC(=O)NCc2cccnc2)cc1 [Example 98, N-(2-aminophenyl)-4-[(pyridin-3-yl)methylaminocarbonyloxymethyl]benzamide]	139 to 141 °C	0.1 µM
Nc1ccccc1NC(=O)c1ccc(CNC(=O)c2ccc(C(F)(F)F)cc2)cc1 [Example 9, N-(2-aminophenyl)-4-[N-(4-trifluoromethylbenzoyl)aminomethyl]benzamide]	243 to 246 °C	1 µM
Nc1ccccc1NC(=O)c1ccc(CNC(=O)Oc2ccccc2)cc1 [Example 68, N-(2-aminophenyl)-4-[N-(phenoxycarbonyl)aminomethyl]benzamide]	174 to 175 °C	3 µM
Nc1ccccc1NC(=O)c1ccc(C(=O)NCCc2ccccc2)cc1 [Example 133, N-(2-aminophenyl)-4-[N-(2-phenylethyl)amino]carbonylbenzamide]	237 to 240 °C (dec.)	3 µM
COc1cc(C(=O)NCc2ccc(C(=O)Nc3ccccc3N)cc2)cc(OC)c1OC [Example 7, N-(2-aminophenyl)-4-[N-(3,4,5-trimethoxybenzoyl)aminomethyl]benzamide]	208 to 210 °C (dec.)	1 µM

SMILES	melting point	minimal effective concentration (A2780 cells)
Nc1ccccc1NC(=O)c1ccc(CNC(=O)c2ccc[nH]2)cc1 [Example 23, N-(2-aminophenyl)-4-[N-(pyrrol-2-yl)carbonylaminomethyl]benzamide]	216 to 220 °C (dec.)	1 µM
CN(C)c1ccc(CC(=O)Nc2ccc(C(=O)Nc3ccccc3N)cc2)cc1 [Example 108, N-(2-aminophenyl)-4-[[4-(N,N-dimethylamino)phenylacetyl]amino]benzamide]	140 °C	3 µM
Nc1ccccc1NC(=O)c1ccc(CNC(=O)OCc2cnccn2)cc1 [Example 77, N-(2-aminophenyl)-4-[N-(pyrazin-2-yl)methoxycarbonylaminomethyl]benzamide]	182 °C	3 µM
COc1ccc(N)c(NC(=O)c2ccc(CNC(=O)COc3cccnc3)cc2)c1 [Example 33, N-(2-amino-5-methoxyphenyl)-4-[N-(pyridin-3-yl)oxyacetylaminomethyl]benzamide]	141 to 144 °C	0.3 µM
Cc1ccc(C(=O)NCc2ccc(C(=O)Nc3ccccc3N)cc2)cn1 [Example 16, N-(2-aminophenyl)-4-[N-(6-methylnicotinoyl)aminomethyl]benzamide]	186 to 190 °C (dec.)	3 µM
Nc1ccccc1NC(=O)c1ccc(CNC(=O)CCc2cccnc2)cc1 [Example 30, N-(2-aminophenyl)-4-[N-[3-(pyridin-3-yl)propionyl]aminomethyl]benzamide]	183 to 186 °C	0.1 µM
Cc1cc(C(=O)Nc2ccccc2N)ccc1NC(=O)COCc1cccnc1 [Example 123, N-(2-aminophenyl)-4-[N-(pyridin-3-yl)methoxyacetylamino]-3-methylbenzamide]	178 to 181 °C (dec.)	3 µM
Nc1ccccc1NC(=O)c1ccc(CNC(=O)CCC(=O)c2cccnc2)cc1 [Example 31, N-(2-aminophenyl)-4-[N-[4-(pyridin-3-yl)-1,4-dioxobutyl]aminomethyl]benzamide]	145 to 147 °C (dec.)	10 µM
Nc1ccccc1NC(=O)c1ccc(CNC(=O)OCc2ccc(-n3ccnc3)cc2)cc1 [Example 50, N-(2-aminophenyl)-4-[N-(4-(imidazol-1-yl)benzyl)oxycarbonylaminomethyl]benzamide]	195 to 198 °C	1 µM
COc1cncc(COC(=O)NCc2ccc(C(=O)Nc3ccccc3N)cc2)c1 [Example 76, N-(2-aminophenyl)-4-[N-(5-methoxypyridin-3-yl)methoxycarbonylaminomethyl]benzamide]	169 to 170 °C	1 µM
Cl.Nc1ccccc1NC(=O)c1ccc(CNC(=O)c2ccccc2[N+](=O)[O-])cc1 [Example 3, N-(2-aminophenyl)-4-[N-(2-nitrobenzoyl)aminomethyl]benzamide hydrochloride]	210 to 212 °C (dec.)	3 µM
Nc1ccccc1NC(=O)c1ccc(CNC(=O)c2cccnc2Cl)cc1 [Example 17, N-(2-aminophenyl)-4-[N-(2-chloronicotinoyl)aminomethyl]benzamide]	176 to 178 °C (dec.)	3 µM
Nc1ccccc1NC(=O)c1ccc(CNC(=O)CC(=O)c2cccnc2)cc1 [Example 34, N-(2-aminophenyl)-4-[N-[3-(pyridin-3-yl)-1,3-dioxopropyl]aminomethyl]benzamide]	204 to 206 °C	0.1 µM
Cc1cc(C(=O)NCc2ccc(C(=O)Nc3ccccc3N)cc2)sn1 [Example 26, N-(2-aminophenyl)-4-[N-(3-methylisothiazol-5-yl)carbonylaminomethyl]benzamide]	168 to 169 °C	1 µM
Cl.Nc1ccccc1NC(=O)c1ccc(-n2cc(COCc3ccccc3)oc2=O)cc1 [Example 138, N-(2-aminophenyl)-4-(5-benzyloxymethyl-1,3-oxazolin-2-on-3-yl)benzamide hydrochloride]	181 to 183 °C	1 µM
Nc1ccccc1NC(=O)c1ccc(-n2cc(COCc3ccccn3)oc2=O)cc1 [Example 142, N-(2-aminophenyl)-4-[5-(pyridin-2-yl)methyloxymethyl-1,3-oxazolin-2-on-3-yl]benzamide]	172 to 174 °C	0.1 µM
COc1ccc(O)c(NC(=O)c2ccc(CNC(=O)OCc3cccnc3)cc2)c1 [Example 85, N-(2-hydroxy-5-methoxyphenyl)-4-[N-(pyridin-3-yl)methoxycarbonylaminomethyl]benzamide]	175 to 176 °C	3 µM
